Bridge positions count the residues as written; N and C are the ends. Square brackets hold non-standard residues; d marks the D form. Peptide text beside a SMILES is read from it. I, II: the chains in the order shown. * marks the point of attachment. DOTA = O=C(O)CN1CCN(CC(=O)O)CCN(CC(=O)*)CCN(CC(=O)O)CC1; Nle = CCCC[C@H](N)C(=O)O; Dap = NC[C@H](N)C(=O)O
Assays:
NPY Y2 receptor = biological target: T1, NPY Y2 receptor (Homo sapiens, UniProt P49146); assay: Receptor autoradiography competition binding (125I-hPYY) on SH-SY5Y cell membrane pellet sections; conditions: SH-SY5Y membrane pellets, 125I-hPYY displacement; n ≥ 3; read-out: Binding affinity Y2 (IC50)
T1 construct: SH-SY5Y cells endogenously expressing Y2; endogenous in cells; host or cells: SH-SY5Y
T1 sequence (P49146 1-381): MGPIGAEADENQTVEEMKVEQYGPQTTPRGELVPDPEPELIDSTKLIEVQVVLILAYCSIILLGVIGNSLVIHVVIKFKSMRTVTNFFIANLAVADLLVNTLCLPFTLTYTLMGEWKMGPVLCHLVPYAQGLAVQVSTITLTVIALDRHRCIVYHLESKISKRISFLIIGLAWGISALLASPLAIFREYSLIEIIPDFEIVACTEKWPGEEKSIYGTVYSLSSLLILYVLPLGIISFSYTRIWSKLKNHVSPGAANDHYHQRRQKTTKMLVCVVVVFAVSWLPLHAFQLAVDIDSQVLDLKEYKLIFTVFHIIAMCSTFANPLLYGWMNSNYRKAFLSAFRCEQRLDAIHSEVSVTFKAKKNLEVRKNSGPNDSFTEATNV
Method: (§1) The neuroepithelioma cell line SK-N-MC endogenously expressing the NPY Y1 receptor was obtained from ATCC (HTB-10; LGC Standards, Teddington, Middlesex, UK) and cultured at 37°C and 5% CO2 in MEM with GlutaMax I and supplemented with 10% FBS, 100 U/ml penicillin and 100 μg/ml streptomycin, 1 mM MEM sodium pyruvate, and MEM non-essential amino acids (× 1). The neuroblastoma cell line SH-SY5Y endogenously expressing the NPY Y2 receptor, kindly provided by Dr. Paolo Paganetti (Novartis, Basel, Switzerland), was cultured at 37°C and 5% CO2 in MEM/Ham's F12 with GlutaMax I and supplemented with 10% FBS, 100 U/ml penicillin and 100 μg/ml streptomycin, 1 mM MEM sodium pyruvate, and MEM non-essential amino acids (× 1). All culture reagents were from Gibco BRL, Life Technologies, (Grand Island, NY, USA).
(§2) Binding affinities of the compounds were assessed using sections of cell membrane pellets of SK-N-MC for Y1 or SH-SY5Y for Y2, as described before. Briefly, membrane pellets were prepared and stored at -80°C, and receptor autoradiography was performed on 20-μm-thick cryostat (Microm HM 500, Walldorf, Germany) sections of the membrane pellets, mounted on microscope slides and stored at -20°C as previously described for other cell lines and receptors. The slides were preincubated in Krebs-Ringer solution (NaCl 119 mM, KCl 3.2 mM, KH2PO4 1.19 mM, MgSO4 1.19 mM, NaHCO3 25 mM, CaCl2 2.53 mM, D-glucose 10 mM; pH 7.4) for 60 min at room temperature. Then, they were incubated for 120 min in the incubation solution containing the Krebs-Ringer solution, 0.1% BSA, 0.05% bacitracin, and 10,000 cpm/100 μl of the ^125I-labeled human PYY (hPYY; 2,000 Ci/mmol; Anawa, Wangen, Switzerland). Membrane pellet sections were incubated with ^125I-hPYY in increasing concentrations ranging from 0.1 nM up to 1,000 nM of non-labeled hPYY, as control, or with the compounds to be tested. After the incubation, the slides were washed two times for 5 min and then rinsed four times in ice-cold preincubation solution. After drying, the slides were exposed to Kodak films Biomax MR® for 7 days. IC50 values were calculated after quantification of the data using a computer-assisted image processing system (Analysis Imaging System, Interfocus, Mering, Germany). Tissue standards (autoradiographic [^125I] and/or [^14C] microscales, GE Healthcare, Little Chalfont, UK) containing a known amount of isotope, cross-calibrated to tissue-equivalent ligand concentrations were used for quantification.

NPY Y1 receptor = biological target: T2, NPY Y1 receptor (Homo sapiens, UniProt P25929); assay: Receptor autoradiography competition binding (125I-hPYY) on SK-N-MC cell membrane pellet sections; conditions: for IC50: SK-N-MC membrane pellets, 125I-hPYY displacement, mean ± SEM, n ≥ 3, read-out: Binding affinity Y1 (IC50)
T2 construct: SK-N-MC cells endogenously expressing Y1; host or cells: SK-N-MC
T2 sequence (P25929 1-384): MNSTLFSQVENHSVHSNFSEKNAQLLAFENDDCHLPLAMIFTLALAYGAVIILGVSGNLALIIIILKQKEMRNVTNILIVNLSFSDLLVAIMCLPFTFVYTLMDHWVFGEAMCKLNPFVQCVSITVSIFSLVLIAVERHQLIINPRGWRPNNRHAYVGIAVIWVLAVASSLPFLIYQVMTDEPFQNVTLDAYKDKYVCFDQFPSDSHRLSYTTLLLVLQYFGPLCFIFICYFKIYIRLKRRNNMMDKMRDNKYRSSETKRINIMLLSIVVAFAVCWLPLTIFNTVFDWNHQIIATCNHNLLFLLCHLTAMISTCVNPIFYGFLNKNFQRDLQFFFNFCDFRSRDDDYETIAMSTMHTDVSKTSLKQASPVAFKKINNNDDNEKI
Method: as §1, §2

Compound | IC50 (NPY Y2 receptor) | IC50 (NPY Y1 receptor) | Y1 binding affinity in words (displacement of 125I-hPYY) (NPY Y1 receptor; SK-N-MC cell membrane pellet sections)
CC[C@H](C)[C@H](N)C(=O)N[C@@H](CC(N)=O)C(=O)N1CCC[C@H]1C(=O)N[C@@H](CSSC[C@H](NC(=O)[C@@H]1CCCN1C(=O)[C@H](CC(N)=O)NC(=O)[C@@H](N)[C@@H](C)CC)C(=O)N[C@@H](Cc1ccc(O)cc1)C(=O)N[C@@H](CCCNC(=N)N)C(=O)N[C@@H](CC(C)C)C(=O)N[C@@H](CCCNC(=N)N)C(=O)N[C@@H](Cc1ccc(O)cc1)C(N)=O)C(=O)N[C@@H](Cc1ccc(O)cc1)C(=O)N[C@@H](CCCNC(=N)N)C(=O)N[C@@H](CC(C)C)C(=O)N[C@@H](CCCNC(=N)N)C(=O)N[C@@H](Cc1ccc(O)cc1)C(N)=O [Analog 1, Bis(31/31')[Pro^30, Cys^31, Tyr^32, Leu^34]NPY(28-36)-NH2, reference compound] (I: H-INPCYRLRY-NH2 / II: H-INPCYRLRY-NH2; disulfide I:4-II:4) | > 1000 nM | 11 ± 7 nM | –
CC[C@H](C)[C@H](NC(=O)CN1CCN(CC(=O)O)CCN(CC(=O)O)CCN(CC(=O)O)CC1)C(=O)N[C@@H](CC(N)=O)C(=O)N1CCC[C@H]1C(=O)N[C@@H](CSSC[C@H](NC(=O)[C@@H]1CCCN1C(=O)[C@H](CC(N)=O)NC(=O)[C@@H](NC(=O)CN1CCN(CC(=O)O)CCN(CC(=O)O)CCN(CC(=O)O)CC1)[C@@H](C)CC)C(=O)N[C@@H](Cc1ccc(O)cc1)C(=O)N[C@@H](CCCNC(=N)N)C(=O)N[C@@H](CC(C)C)C(=O)N[C@@H](CCCNC(=N)N)C(=O)N[C@@H](Cc1ccc(O)cc1)C(N)=O)C(=O)N[C@@H](Cc1ccc(O)cc1)C(=O)N[C@@H](CCCNC(=N)N)C(=O)N[C@@H](CC(C)C)C(=O)N[C@@H](CCCNC(=N)N)C(=O)N[C@@H](Cc1ccc(O)cc1)C(N)=O [Analog 2] (I: {DOTA}-INPCYRLRY-NH2 / II: {DOTA}-INPCYRLRY-NH2; disulfide I:4-II:4) | > 1000 nM | 143 ± 37 nM | –
CCCC[C@H](NC(=O)[C@H](CCCNC(=N)N)NC(=O)[C@H](Cc1c[nH]c2ccccc12)NC(=O)[C@H](CSSC[C@H](NC(=O)[C@@H]1CCCN1C(=O)[C@H](CC(N)=O)NC(=O)[C@@H](N)[C@@H](C)CC)C(=O)N[C@@H](Cc1c[nH]c2ccccc12)C(=O)N[C@@H](CCCNC(=N)N)C(=O)N[C@@H](CCCC)C(=O)N[C@@H](CCCNC(=N)N)C(=O)N[C@@H](Cc1ccc(O)cc1)C(N)=O)NC(=O)[C@@H]1CCCN1C(=O)[C@H](CC(N)=O)NC(=O)[C@@H](N)[C@@H](C)CC)C(=O)N[C@@H](CCCNC(=N)N)C(=O)N[C@@H](Cc1ccc(O)cc1)C(N)=O [Analog 3] (I: H-INPCWR[Nle]RY-NH2 / II: H-INPCWR[Nle]RY-NH2; disulfide I:4-II:4) | > 1000 nM | 9 ± 3 nM | –
CCCC[C@H](NC(=O)[C@H](CCCNC(=N)N)NC(=O)[C@H](Cc1c[nH]c2ccccc12)NC(=O)[C@H](CSSC[C@H](NC(=O)[C@@H]1CCCN1C(=O)[C@H](CC(N)=O)NC(=O)[C@@H](NC(=O)CN1CCN(CC(=O)O)CCN(CC(=O)O)CCN(CC(=O)O)CC1)[C@@H](C)CC)C(=O)N[C@@H](Cc1c[nH]c2ccccc12)C(=O)N[C@@H](CCCNC(=N)N)C(=O)N[C@@H](CCCC)C(=O)N[C@@H](CCCNC(=N)N)C(=O)N[C@@H](Cc1ccc(O)cc1)C(N)=O)NC(=O)[C@@H]1CCCN1C(=O)[C@H](CC(N)=O)NC(=O)[C@@H](NC(=O)CN1CCN(CC(=O)O)CCN(CC(=O)O)CCN(CC(=O)O)CC1)[C@@H](C)CC)C(=O)N[C@@H](CCCNC(=N)N)C(=O)N[C@@H](Cc1ccc(O)cc1)C(N)=O [Analog 4] (I: {DOTA}-INPCWR[Nle]RY-NH2 / II: {DOTA}-INPCWR[Nle]RY-NH2; disulfide I:4-II:4) | > 1000 nM | 294 ± 33 nM | –
CCCC[C@H](NC(=O)[C@H](CCCNC(=N)N)NC(=O)[C@H](Cc1c[nH]c2ccccc12)NC(=O)[C@H](CSSC[C@H](NC(=O)[C@@H]1CCCN1C(=O)[C@H](CN)NC(=O)[C@@H](N)[C@@H](C)CC)C(=O)N[C@@H](Cc1c[nH]c2ccccc12)C(=O)N[C@@H](CCCNC(=N)N)C(=O)N[C@@H](CCCC)C(=O)N[C@@H](CCCNC(=N)N)C(=O)N[C@@H](Cc1ccc(O)cc1)C(N)=O)NC(=O)[C@@H]1CCCN1C(=O)[C@H](CN)NC(=O)[C@@H](N)[C@@H](C)CC)C(=O)N[C@@H](CCCNC(=N)N)C(=O)N[C@@H](Cc1ccc(O)cc1)C(N)=O [Analog 5] (I: H-I[Dap]PCWR[Nle]RY-NH2 / II: H-I[Dap]PCWR[Nle]RY-NH2; disulfide I:4-II:4) | > 1000 nM | 143 ± 20 nM | –
CCCC[C@H](NC(=O)[C@H](CCCNC(=N)N)NC(=O)[C@H](Cc1c[nH]c2ccccc12)NC(=O)[C@H](CSSC[C@H](NC(=O)[C@@H]1CCCN1C(=O)[C@H](CNC(=O)CN1CCN(CC(=O)O)CCN(CC(=O)O)CCN(CC(=O)O)CC1)NC(=O)[C@@H](N)[C@@H](C)CC)C(=O)N[C@@H](Cc1c[nH]c2ccccc12)C(=O)N[C@@H](CCCNC(=N)N)C(=O)N[C@@H](CCCC)C(=O)N[C@@H](CCCNC(=N)N)C(=O)N[C@@H](Cc1ccc(O)cc1)C(N)=O)NC(=O)[C@@H]1CCCN1C(=O)[C@H](CNC(=O)CN1CCN(CC(=O)O)CCN(CC(=O)O)CCN(CC(=O)O)CC1)NC(=O)[C@@H](N)[C@@H](C)CC)C(=O)N[C@@H](CCCNC(=N)N)C(=O)N[C@@H](Cc1ccc(O)cc1)C(N)=O [Analog 6] (I: H-I[Dap](DOTA)PCWR[Nle]RY-NH2 / II: H-I[Dap](DOTA)PCWR[Nle]RY-NH2; disulfide I:4-II:4) | > 1000 nM | > 1000 nM | –
CCCC[C@H](NC(=O)[C@H](CCCNC(=N)N)NC(=O)[C@H](Cc1c[nH]c2ccccc12)NC(=O)[C@H](CSSC[C@H](NC(=O)[C@@H]1CCCN1C(=O)[C@H](CC(N)=O)NC(=O)[C@@H](N)[C@@H](C)CC)C(=O)N[C@@H](Cc1c[nH]c2ccccc12)C(=O)N[C@@H](CCCNC(=N)N)C(=O)N[C@@H](CCCC)C(=O)N[C@@H](CCCNC(=N)N)C(=O)N[C@@H](Cc1ccc(O)cc1)C(N)=O)NC(=O)[C@@H]1CCCN1C(=O)[C@H](CN)NC(=O)[C@@H](N)[C@@H](C)CC)C(=O)N[C@@H](CCCNC(=N)N)C(=O)N[C@@H](Cc1ccc(O)cc1)C(N)=O [Analog 7] (I: H-I[Dap]PCWR[Nle]RY-NH2 / II: H-INPCWR[Nle]RY-NH2; disulfide I:4-II:4) | > 1000 nM | 19 ± 5 nM | –
hPYY: non-labeled human peptide YY, used as control in the binding assay [reference compound] | – | – | high-affinity displacements of ^125I-hPYY

Source: paper PMC3250963, “Novel dimeric DOTA-coupled peptidic Y1-receptor antagonists for targeting of neuropeptide Y receptor-expressing cancers” (EJNMMI Research, 2011)
